Experimental findings from patent US7129239B2, “Purine compounds and uses thereof” (Pfizer Inc., priority 2002, dated 2006) are described below.

In this assay the test system is CB-1 receptor. The experiment in a line: CB-1 receptor binding assay ([3H]SR141716A displacement). The following applies: rat or human protocol not specified.

Procedure: The following assays were designed to detect compounds that inhibit the binding of [^3H] SR141716A (selective radiolabeled CB-1 ligand) and [^3H]
PelFreeze brains (available from Pel Freeze Biologicals, Rogers, Ark.) were cut up and placed in tissue preparation buffer (5 mM Tris HCl, pH=7.4 and 2 mM EDTA), polytroned at high speed and kept on ice for 15 minutes. The homogenate was then spun at 1,000×g for 5 minutes at 4° C. The supernatant was recovered and centrifuged at 100,000×G for 1 hour at 4° C. […] A protein assay was performed and 200 μl of tissue totaling 20 μg was added to the assay.
The test compounds were diluted in drug buffer (0.5% BSA, 10% DMSO and TME) and then 25 μl were added to a deep well polypropylene plate. [^3H] SR141716A was diluted in a ligand buffer (0.5% BSA plus TME) and 25 μl were added to the plate. A BCA protein assay was used to determine the appropriate tissue concentration and then 200 μl of rat brain tissue at the appropriate concentration was added to the plate. […] In the morning the filters were counted on a Wallac Betaplate™ counter (available from PerkinElmer Life Sciences™, Boston, Mass.). […]
The test compounds were diluted in drug buffer (0.5% BSA, 10% DMSO and TME) and then 25 μl were added to a deep well polypropylene plate. […] In the morning the filters were counted on a Wallac Betaplate™ counter (available from PerkinElmer Life Sciences™, Boston, Mass.).

As for `O=C([O-])C1(Nc2ncnc3c2nc(-c2ccccc2Cl)n3-c2ccc(Cl)cc2)CCCC1.[K+]` [Example 19A-1, 1-[9-(4-chlorophenyl)-8-(2-chlorophenyl)-9H-purin-6-ylamino]-cyclopentanecarboxylic Acid, Potassium Salt], the binding activity is listed as 2.8 nM.
The result for `NC1(C(=O)[O-])CCN(c2ncnc3c2nc(-c2ccccc2Cl)n3-c2ccc(Cl)cc2)CC1.[K+]` [Example 19A-2, 4-Amino-1-[9-(4-chlorophenyl)-8-(2-chlorophenyl)-9H-purin-6-yl]-piperidine-4-carboxylic Acid, Potassium Salt] reads 1.2 nM.
